From PMC9806845, “Recombinant actin-depolymerizing factor of the apicomplexan Neospora caninum (NcADF) is susceptible to oxidation” (Frontiers in Cellular and Infection Microbiology, 2022)

Target: T1, NcADF (Neospora caninum, UniProt F0VCT8)
T1 construct: gene NCLIV_012510; N-terminal 6xHis tag, pET28(a), E. coli BL21(DE3), IMAC; 18 kDa; cysteines at 11, 58, 65, 75; TCEP-reduced before assay
T1 sequence (F0VCT8 1-118): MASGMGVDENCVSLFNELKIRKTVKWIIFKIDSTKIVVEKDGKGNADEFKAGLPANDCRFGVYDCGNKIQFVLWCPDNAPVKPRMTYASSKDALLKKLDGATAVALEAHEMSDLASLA
Experiment: DTNB free-thiol assay; also biotin-iodoacetamide alkylation and SDS-PAGE dimerization
Type: biochemical
Details: covalent (cysteine oxidation, reversible disulfide dimers); 25 uM protein, 20 mM Tris pH 7.0, 30 min

O=S(=O)(O)CCNCl [NCT, N-chlorotaurine]
DTNB free-thiol assay; also biotin-iodoacetamide alkylation and SDS-PAGE dimeriz: micromolar concentration of NCT, but not of H2O2, was sufficient to oxidize the protein
